target: T1, Aromatase (Homo sapiens, UniProt P11511); experiment: Aromatase-inhibiting activity (radiometric, H^14COOH release; method of Covey et al.); format: biochemical; details: not given
T1 construct: Microsomes of human placenta; from tissue; host or cells: human placenta, microsomes
T1 sequence (P11511 1-503): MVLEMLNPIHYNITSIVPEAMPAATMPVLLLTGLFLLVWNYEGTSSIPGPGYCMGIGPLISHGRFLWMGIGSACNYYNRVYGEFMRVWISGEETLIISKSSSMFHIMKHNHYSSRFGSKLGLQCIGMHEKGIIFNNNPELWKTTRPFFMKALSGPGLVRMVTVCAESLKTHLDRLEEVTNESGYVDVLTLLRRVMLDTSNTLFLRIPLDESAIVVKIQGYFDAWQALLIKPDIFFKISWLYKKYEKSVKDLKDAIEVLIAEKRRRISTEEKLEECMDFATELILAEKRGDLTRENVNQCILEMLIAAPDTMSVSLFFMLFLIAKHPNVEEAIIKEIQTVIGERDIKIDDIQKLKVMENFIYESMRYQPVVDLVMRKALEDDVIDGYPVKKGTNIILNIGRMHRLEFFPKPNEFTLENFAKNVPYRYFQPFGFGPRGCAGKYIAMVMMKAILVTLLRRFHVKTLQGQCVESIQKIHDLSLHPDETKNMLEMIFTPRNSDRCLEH
Experimental: The aromatase-inhibiting activity was measured basically according to the method described in D. F. Covey et al: BBRC […], 81-86, 1988. The aromatase-inhibiting activity of the azole derivatives used in the present invention was evaluated in terms of 50% aromatase activity-inhibiting concentration (IC50) of the derivatives.
The aromatase-inhibiting activity of each compound was measured according to the method of Covey et al: BBRC, 157 (1), 81-86, 1988. Radioactivity of a by-product H^14 COOH released from a ^14 C-labeled substrate by the action of aromatase was measured to radiometrically determine aromatase-inhibiting activity of the compounds. The aromatase-inhibiting activity of the test compound is shown by 50% aromatase activity-inhibiting concentration (IC50) of the compound.
An aromatase reaction system of the composition shown below in 67 mM phosphate buffer solution (0.5 ml) was incubated at 37° C. for 30 minutes with shaking. Chloroform (5 ml) was added to the reaction solution to stop the reaction. The reaction solution was vigorously stirred and then centrifuged to recover the by-product (H^14 COOH) of the aromatase reaction in the aqueous layer. The aqueous layer (0.1 ml) was collected and mixed with a liquid scintillation cocktail (4 ml) to measure its radioactivity.
(1) Aromatase: Microsomes of human placenta (0.1 mg/ml, protein concentration).
(2) Substrate: [19-^14 C] 4-Androstene-3,17-dione (1×10^-6 M; 2 kBq/ml).
(3) Coenzymes: Nicotinamide adenine dinucleotide phosphate, reduced form (2×10^-3 M), glucose-6-phosphate (4×10^-3 M) and glucose-6-phosphate dehydrogenase (4 U/ml).
Radioactivity of the reaction system exclusive of (1) was supposed to be background radioactivity as 100% control of aromatase inhibition. Radioactivity of the reaction system exclusive of (4) was supposed to be that of negative control as 0% of aromatase inhibition. […] 4-Hyroxyandrostenedione was used as a reference compound.
The aromatase inhibiting activities (IC50) of the optical isomers (I-3 (-) and I-3 (+)) were determined in the same way as in Example 6.

How did the IC50 turn out when `CC(C)[C@@](O)(CCn1ccnc1)Cc1ccc(Cl)cc1` [Compound I-2, (3S)-3-(4-chlorobenzyl)-1-(1H-imidazol-1-yl)-4-methylpentan-3-ol] was run?
The IC50 was 10 nM.

Which IC50 does the source give for `CC1(C)C[C@@H](Cc2ccc(Cl)cc2)[C@](O)(Cn2cncn2)C1` (relative stereo) [Compound I-20, c-2-(4-Chlorobenzyl)-4,4-dimethyl-1-(1H-1,2,4-triazol-1-ylmethyl)cyclopentan-r-1-ol] here?
The IC50 was 40 nM.

How did the IC50 turn out when `O[C@@]1(Cc2ccc(Cl)cc2)CCC[C@@H]1Cn1ccnc1` (relative stereo) [Compound I-4, 1-(4-chlorobenzyl)-t-2-(1H-imidazol-1-ylmethyl)cyclopentan-r-1-ol] was run?
The IC50 was 20 nM.

Which IC50 does the source give for `CC1(C)C[C@@H](Cc2ccc(Cl)cc2)[C@](O)(Cn2ccnc2)C1` (relative stereo) [Compound I-19, c-2-(4-Chlorobenzyl)-1-(1H-imidazol-1-ylmethyl)-4,4-dimethylcyclopentan-r-1-ol] here?
Its IC50 is 65 nM.

Which IC50 does the source give for `O[C@@]1(Cc2ccc(F)cc2F)CCC[C@H]1Cn1cncn1` (relative stereo) [Compound I-8, 1-(2,4-Difluorobenzyl)-c-2-(1H-1,2,4-triazol-1-ylmethyl)cyclopentan-r-1-ol] here?
Its IC50 is 12 nM.

With `O[C@@]1(Cc2ccc(Cl)cc2Cl)CCC[C@H]1Cn1cncn1` (relative stereo) [Compound I-7, 1-(2,4-Dichlorobenzyl)-c-2-(1H-1,2,4-triazol-1-ylmethyl)cyclopentan-r-1-ol] as the compound, how does the IC50 read?
The IC50 was 10 nM.

For `O[C@@]1(Cc2ccc(-c3ccccc3)cc2)CCC[C@H]1Cn1cncn1` (relative stereo) [Compound I-9, 1-(p-Biphenylmethyl)-c-2-(1H-1,2,4-triazol-1-ylmethyl)cyclopentan-r-1-ol], which IC50 is on record?
The IC50 was 13 nM.

How did the IC50 turn out when `O[C@@]1(Cc2ccc(Cl)cc2)CCC[C@H]1Cn1ccnc1` (stereo in doubt) [Compound I-3, 1-(4-chlorobenzyl)-c-2-(1H-imidazol-1-ylmethyl)cyclopentan-r-1-ol] was run?
Its IC50 is 40 nM.

Which IC50 does the source give for `CC1(C)CC[C@@H]2Cc3ccc(Cl)cc3O[C@]21Cn1cncn1` [Compound I-14, (3aR,9aR)-6-chloro-2,3,9,9a-tetrahydro-3,3-dimethyl-3a(1H)-(1H-1,2,4-triazol-1-ylmethyl)cyclopenta[b][1]benzopyran] here?
The IC50 was 12 nM.

For `Fc1cccc2c1C[C@H]1CCC[C@@]1(Cn1cncn1)O2` [Compound I-18, (3aR,9aR)-8-Fluoro-2,3,9,9a-tetrahydro-3a(1H)-(1H-1,2,4-triazol-1-ylmethyl)cyclopenta[b][1]benzopyran], which IC50 is on record?
The IC50 was 13 nM.

With `O[C@@]1(c2ccc(Cl)cc2)CCC[C@H]1Cn1cncn1` (relative stereo) [Compound I-12, 1-(4-Chlorophenyl)-c-2-(1H-1,2,4-triazol-1-ylmethyl)cyclopentan-r-1-ol] as the compound, how does the IC50 read?
Its IC50 is 10 nM.

How did the IC50 turn out when `C[C@]12CCC(=O)C(O)=C1CC[C@@H]1[C@@H]2CC[C@]2(C)C(=O)CC[C@@H]12` [Reference, 4-Hyroxyandrostenedione, reference compound] was run?
Its IC50 is 20 nM.

How did the IC50 turn out when `O[C@@]1(Cc2ccc(Cl)cc2)CCC[C@H]1Cn1cncn1` (relative stereo) [Compound I-6, 1-(4-Chlorobenzyl)-c-2-(1H-1,2,4-triazol-1-ylmethyl)cyclopentan-r-1-ol] was run?
Its IC50 is 40 nM.

`Clc1ccc2c(c1)O[C@]1(Cn3cncn3)CCC[C@@H]1C2` [Compound I-17, (3aR,9aR)-6-Chloro-2,3,9,9a-tetrahydro-3a(1H)-(1H-1,2,4-triazol-1-ylmethyl)cyclopenta[b][1]benzopyran] was tested. Which IC50 did it give?
Its IC50 is 30 nM.

same assay, conditions: Table 1; microsomes of human placenta, [19-14C] 4-androstene-3,17-dione 1×10^-6 M, 37° C., 30 minutes; read-out: IC50 (50% aromatase activity-inhibiting concentration)

How did the IC50 turn out when `CC(C)[C@](O)(CCn1ccnc1)c1ccc(Cl)cc1` [Compound I-1, (3R)-3-(4-chlorophenyl)-1-(1H-imidazol-1-yl)-4-methylpentan-3-ol] was run?
Its IC50 is 10 nM.

Which IC50 does the source give for `O[C@@]1(c2ccccc2)CCC[C@H]1Cn1ccnc1` (relative stereo) [Compound I-11, 1-(Phenyl)-c-2-(1H-imidazol-1-ylmethyl)cyclopentan-r-1-ol] here?
Its IC50 is 35 nM.

How did the IC50 turn out when `Clc1ccc2c(c1)O[C@]1(Cn3ccnc3)CCC[C@@H]1C2` [Compound I-16, (3aR,9aR)-6-Chloro-2,3,9,9a-tetrahydro-3a(1H)-(1H-imidazol-1-ylmethyl)cyclopenta[b][1]benzopyran] was run?
The IC50 was 30 nM.

Which IC50 does the source give for `O[C@@]1(c2ccc(Cl)cc2)CCC[C@H]1Cn1ccnc1` (relative stereo) [Compound I-10, 1--(4-Chlorophenyl)-c-2-(1H-imidazol-1-ylmethyl)cyclopentan-r-1-ol] here?
The IC50 was 30 nM.

Which IC50 does the source give for `O[C@@]1(Cc2ccccc2)CCC[C@@H]1Cn1ccnc1` (relative stereo) [Compound I-5, 1-(Benzyl)-t-2-(1H-imidazol-1-ylmethyl)cyclopentan-r-1-ol] here?
Its IC50 is 50 nM.

How did the IC50 turn out when `CC1(C)CC[C@@H]2Cc3ccc(Cl)cc3O[C@]21Cn1ccnc1` [Compound I-15, (3aR,9aR)-6-Chloro-2,3,9,9a-tetrahydro-3a(1H)-(1H-imidazol-1-ylmethyl)-3,3-dimethylcyclopenta[b][1]benzopyran] was run?
The IC50 was 45 nM.

same assay, conditions: read-out: IC50 (50% aromatase activity-inhibiting concentration); Table 1; microsomes of human placenta, [19-14C] 4-androstene-3,17-dione 1×10^-6 M, 37° C., 30 minutes

`O[C@@]1(Cc2ccc(Cl)cc2)CCC[C@H]1Cn1ccnc1` (stereo in doubt) [Compound I-13, nitrate of 1-(4-chlorobenzyl)-c-2-(1H-imidazol-1-ylmethyl)-cyclopentan-r-1-ol] was tested. Which IC50 did it give?
The IC50 was 55 nM.

same assay, conditions: read-out: IC50 of optical isomers; Example 7; same way as in Example 6

How did the IC50 turn out when `O[C@]1(Cc2ccc(Cl)cc2)CCC[C@@H]1Cn1ccnc1` (stereo in doubt) [I-3 (+), 1-(4-chlorobenzyl)-c-2-(1H-imidazol-1-ylmethyl)cyclopentan-r-1-ol] was run?
The IC50 was 80 nM.

How did the IC50 turn out when `O[C@]1(Cc2ccc(Cl)cc2)CCC[C@@H]1Cn1ccnc1` (stereo in doubt) [I-3 (-), 1-(4-chlorobenzyl)-c-2-(1H-imidazol-1-ylmethyl)cyclopentan-r-1-ol] was run?
The IC50 was 4 nM.
